Laboratory results as given in patent US20260027116A1, “Methods of Treating Chronic Graft-Versus-Host Disease Following Allogeneic Hematopoietic Stem Cell Transplantation” (Kadmon Corporation, LLC, priority 2022, published 2026).
“Also recorded” adds a separate entry of the source. Like-named read-outs stand apart in the source and are kept apart here.

Test system: patients with cGVHD
Procedure: All responses were assessed by the investigators.
Reported Adverse Events. […] All-cause mortality data collected during the study were assessed for all enrolled participants. Disease progression related death was not reported as AE.
Number of Participants With Treatment-emergent Adverse Events (TEAEs), and Treatment-emergent Serious Adverse Events (TESAEs). […] TEAEs included both SAEs and non-SAEs. […] Analysis was performed on safety population which included all participants who received at least 1 dose of study medication.

CC(C)NC(=O)COc1cccc(-c2nc(Nc3ccc4[nH]ncc4c3)c3ccccc3n2)c1 [Belumosudil, 2-{3-[4-(1H-indazol-5-ylamino)-2-quinazolinyl]phenoxy}-N-(propan-2-yl) acetamide]
Pleural effusion: Affected/At Risk (%) (Cohort 3 400 mg QD): 1/21 (4.76%) | Pneumonia respiratory syncytial viral: # Events (Cohort 3 400 mg QD): 0 | Pneumonia respiratory syncytial viral: Affected/At Risk (%) (Cohort 3 400 mg QD): 0/21 (0%) | Pneumonia: # Events (Cohort 3 400 mg QD): 0 | Pneumonia: Affected/At Risk (%) (Cohort 3 400 mg QD): 0/21 (0%) | Pollakiuria: # Events (Cohort 3 400 mg QD): 0 | Pollakiuria: Affected/At Risk (%) (Cohort 3 400 mg QD): 0/21 (0%) | Presyncope: # Events (Cohort 3 400 mg QD): 0 | Presyncope: Affected/At Risk (%) (Cohort 3 400 mg QD): 0/21 (0%) | Productive cough: # Events (Cohort 3 400 mg QD): 2 | Productive cough: Affected/At Risk (%) (Cohort 3 400 mg QD): 1/21 (4.76%) | Proteinuria: # Events (Cohort 3 400 mg QD): 0 | Proteinuria: Affected/At Risk (%) (Cohort 3 400 mg QD): 0/21 (0%) | Pruritus: # Events (Cohort 3 400 mg QD): 0 | Pruritus: Affected/At Risk (%) (Cohort 3 400 mg QD): 0/21 (0%) | Pseudomonas infection: # Events (Cohort 3 400 mg QD): 0 | Pseudomonas infection: Affected/At Risk (%) (Cohort 3 400 mg QD): 0/21 (0%) | Pulmonary mass: # Events (Cohort 3 400 mg QD): 1 | Pulmonary mass: Affected/At Risk (%) (Cohort 3 400 mg QD): 1/21 (4.76%) | Pyrexia: # Events (Cohort 3 400 mg QD): 3 | Pyrexia: Affected/At Risk (%) (Cohort 3 400 mg QD): 3/21 (14.29%) | Rash erythematous: # Events (Cohort 3 400 mg QD): 0 | Rash erythematous: Affected/At Risk (%) (Cohort 3 400 mg QD): 0/21 (0%) | Rash maculo-papular: # Events (Cohort 3 400 mg QD): 0 | Rash maculo-papular: Affected/At Risk (%) (Cohort 3 400 mg QD): 0/21 (0%) | Rash pustular: # Events (Cohort 3 400 mg QD): 0 | Rash pustular: Affected/At Risk (%) (Cohort 3 400 mg QD): 0/21 (0%) | Rash: # Events (Cohort 3 400 mg QD): 1 | Rash: Affected/At Risk (%) (Cohort 3 400 mg QD): 1/21 (4.76%) | Red blood cells urine positive: # Events (Cohort 3 400 mg QD): 0 | Red blood cells urine positive: Affected/At Risk (%) (Cohort 3 400 mg QD): 0/21 (0%) | Renal failure: # Events (Cohort 3 400 mg QD): 0 | Renal failure: Affected/At Risk (%) (Cohort 3 400 mg QD): 0/21 (0%) | Respiratory syncytial virus infection: # Events (Cohort 3 400 mg QD): 3 | Respiratory syncytial virus infection: Affected/At Risk (%) (Cohort 3 400 mg QD): 2/21 (9.52%) | Respiratory tract infection fungal: # Events (Cohort 3 400 mg QD): 0 | Respiratory tract infection fungal: Affected/At Risk (%) (Cohort 3 400 mg QD): 0/21 (0%) | Respiratory tract infection: # Events (Cohort 3 400 mg QD): 0 | Respiratory tract infection: Affected/At Risk (%) (Cohort 3 400 mg QD): 0/21 (0%) | Restless legs syndrome: # Events (Cohort 3 400 mg QD): 0 | Restless legs syndrome: Affected/At Risk (%) (Cohort 3 400 mg QD): 0/21 (0%) | Rosacea: # Events (Cohort 3 400 mg QD): 0 | Rosacea: Affected/At Risk (%) (Cohort 3 400 mg QD): 0/21 (0%) | SAE, No. (%) (Cohort 3 400 mg QD): 12 (57) | Sinus pain: # Events (Cohort 3 400 mg QD): 0 | Sinus pain: Affected/At Risk (%) (Cohort 3 400 mg QD): 0/21 (0%) | Sinusitis: # Events (Cohort 3 400 mg QD): 1 | Sinusitis: Affected/At Risk (%) (Cohort 3 400 mg QD): 1/21 (4.76%) | Skin abrasion: # Events (Cohort 3 400 mg QD): 2 | Skin abrasion: Affected/At Risk (%) (Cohort 3 400 mg QD): 2/21 (9.52%) | Skin lesion: # Events (Cohort 3 400 mg QD): 0 | Skin lesion: Affected/At Risk (%) (Cohort 3 400 mg QD): 0/21 (0%) | Skin papilloma: # Events (Cohort 3 400 mg QD): 0 | Skin papilloma: Affected/At Risk (%) (Cohort 3 400 mg QD): 0/21 (0%) | Spinal compression fracture: # Events (Cohort 3 400 mg QD): 0 | Spinal compression fracture: Affected/At Risk (%) (Cohort 3 400 mg QD): 0/21 (0%) | Squamous cell carcinoma of skin: # Events (Cohort 3 400 mg QD): 0 | Squamous cell carcinoma of skin: Affected/At Risk (%) (Cohort 3 400 mg QD): 0/21 (0%) | Stomatitis: # Events (Cohort 3 400 mg QD): 1 | Stomatitis: Affected/At Risk (%) (Cohort 3 400 mg QD): 1/21 (4.76%) | Superior vena cava syndrome: # Events (Cohort 3 400 mg QD): 0 | Superior vena cava syndrome: Affected/At Risk (%) (Cohort 3 400 mg QD): 1/21 (4.76%) | TEAE, participants (%) (Cohort 3 400 mg QD): 20 (95%) participants | TESAE, participants (%) (Cohort 3 400 mg QD): 13 (62%) participants | Tachycardia: # Events (Cohort 3 400 mg QD): 2 | Tachycardia: Affected/At Risk (%) (Cohort 3 400 mg QD): 2/21 (9.52%) | Tendonitis: # Events (Cohort 3 400 mg QD): 0 | Tendonitis: Affected/At Risk (%) (Cohort 3 400 mg QD): 0/21 (0%) | Testicular pain: # Events (Cohort 3 400 mg QD): 0 | Testicular pain: Affected/At Risk (%) (Cohort 3 400 mg QD): 0/21 (0%) | Testicular swelling: # Events (Cohort 3 400 mg QD): 0 | Testicular swelling: Affected/At Risk (%) (Cohort 3 400 mg QD): 0/21 (0%) | Thoracic spinal stenosis: # Events (Cohort 3 400 mg QD): 0 | Thoracic spinal stenosis: Affected/At Risk (%) (Cohort 3 400 mg QD): 0/21 (0%) | Thrombocytopenia: # Events (Cohort 3 400 mg QD): 1 | Thrombocytopenia: Affected/At Risk (%) (Cohort 3 400 mg QD): 1/21 (4.76%) | Thrombocytosis: # Events (Cohort 3 400 mg QD): 0 | Thrombocytosis: Affected/At Risk (%) (Cohort 3 400 mg QD): 0/21 (0%) | Tinea pedis: # Events (Cohort 3 400 mg QD): 0 | Tinea pedis: Affected/At Risk (%) (Cohort 3 400 mg QD): 0/21 (0%) | Tooth fracture: # Events (Cohort 3 400 mg QD): 0 | Tooth fracture: Affected/At Risk (%) (Cohort 3 400 mg QD): 0/21 (0%) | Total other adverse events: Affected/At Risk (%) (Cohort 3 400 mg QD): 19/21 (90.48%) | Transfusion reaction: # Events (Cohort 3 400 mg QD): 0 | Transfusion reaction: Affected/At Risk (%) (Cohort 3 400 mg QD): 0/21 (0%) | Tremor: # Events (Cohort 3 400 mg QD): 4 | Tremor: Affected/At Risk (%) (Cohort 3 400 mg QD): 3/21 (14.29%) | Type 2 diabetes mellitus: # Events (Cohort 3 400 mg QD): 0 | Type 2 diabetes mellitus: Affected/At Risk (%) (Cohort 3 400 mg QD): 0/21 (0%) | Ulcerative keratitis: # Events (Cohort 3 400 mg QD): 0 | Ulcerative keratitis: Affected/At Risk (%) (Cohort 3 400 mg QD): 0/21 (0%) | Upper respiratory tract infection: # Events (Cohort 3 400 mg QD): 9 | Upper respiratory tract infection: Affected/At Risk (%) (Cohort 3 400 mg QD): 7/21 (33.33%) | Upper-airway cough syndrome: # Events (Cohort 3 400 mg QD): 1 | Upper-airway cough syndrome: Affected/At Risk (%) (Cohort 3 400 mg QD): 1/21 (4.76%) | Urinary retention: # Events (Cohort 3 400 mg QD): 0 | Urinary retention: Affected/At Risk (%) (Cohort 3 400 mg QD): 0/21 (0%) | Urinary tract infection: # Events (Cohort 3 400 mg QD): 0 | Urinary tract infection: Affected/At Risk (%) (Cohort 3 400 mg QD): 0/21 (0%) | Urinary tract pain: # Events (Cohort 3 400 mg QD): 1 | Urinary tract pain: Affected/At Risk (%) (Cohort 3 400 mg QD): 1/21 (4.76%) | Urine output decreased: # Events (Cohort 3 400 mg QD): 0 | Urine output decreased: Affected/At Risk (%) (Cohort 3 400 mg QD): 0/21 (0%) | Vascular access complication: # Events (Cohort 3 400 mg QD): 0 | Vascular access complication: Affected/At Risk (%) (Cohort 3 400 mg QD): 0/21 (0%) | Vertigo: # Events (Cohort 3 400 mg QD): 0 | Vertigo: Affected/At Risk (%) (Cohort 3 400 mg QD): 0/21 (0%) | Vision blurred: # Events (Cohort 3 400 mg QD): 4 | Vision blurred: Affected/At Risk (%) (Cohort 3 400 mg QD): 4/21 (19.05%) | Vomiting: # Events (Cohort 3 400 mg QD): 4 | Vomiting: Affected/At Risk (%) (Cohort 3 400 mg QD): 4/21 (19.05%) | Weight decreased: # Events (Cohort 3 400 mg QD): 4 | Weight decreased: Affected/At Risk (%) (Cohort 3 400 mg QD): 2/21 (9.52%) | Weight increased: # Events (Cohort 3 400 mg QD): 4 | Weight increased: Affected/At Risk (%) (Cohort 3 400 mg QD): 1/21 (4.76%) | White blood cell count decreased: # Events (Cohort 3 400 mg QD): 2 | White blood cell count decreased: Affected/At Risk (%) (Cohort 3 400 mg QD): 1/21 (4.76%) | cytomegalovirus (CMV) infection or reactivation (Example 1): No cases; also recorded: no reported CMV infection or reactivation | deaths attributed to belumosudil (Example 1): none of the deaths attributed to belumosudil | dose response with respect to observed AEs (Example 1): no dose response | median duration of dose interruption (Example 1): 10 days | median duration of dose reduction (Example 1): 97 days | patients who discontinued because of potentially drug-related AEs (Example 1): Three | patients with dose interruptions (Example 1): 41% | patients with dose reductions (Example 1): 9% | tolerability (Example 1): well-tolerated | grade ≥3 cytopenias (Example 1, N=54): 4% | grade ≥3 dyspnea (Example 1, N=54): 13% | grade ≥3 hyperglycemia (Example 1, N=54): 7% | grade ≥3 hypoxia (Example 1, N=54): 7% | grade ≥3 increased liver function tests (Example 1, N=54): 7% | patients with a grade ≥3 AE (Example 1, N=54): Sixty-one | patients with cough (Example 1, N=54): 22% | patients with diarrhea (Example 1, N=54): 33% | patients with dyspnea (Example 1, N=54): 30% | patients with fatigue (Example 1, N=54): 33% | patients with headache (Example 1, N=54): 24% | patients with hypertension (Example 1, N=54): 20% | patients with increased liver function tests (Example 1, N=54): 33% | patients with nausea (Example 1, N=54): 33% | patients with peripheral edema (Example 1, N=54): 24% | patients with serious AEs (Example 1, N=54): 43% | patients with upper respiratory infection (Example 1, N=54): 46% | serious AE dyspnea (Example 1, N=54): 7% | serious AE hypoxia (Example 1, N=54): 4% | serious AE influenza-like illness (Example 1, N=54): 4% | serious AE lung infection (Example 1, N=54): 6% | patients who died during the study (Example 1, all in cohort 3): Four | All grade ALT/AST increased, No. (%) (Total, N=54): 18 (33) | All grade Cough, No. (%) (Total, N=54): 12 (22) | All grade Diarrhea, No. (%) (Total, N=54): 18 (33) | All grade Dyspnea, No. (%) (Total, N=54): 16 (30) | All grade Fatigue, No. (%) (Total, N=54): 18 (33) | All grade Headache, No. (%) (Total, N=54): 13 (24) | All grade Hypertension, No. (%) (Total, N=54): 11 (20) | All grade Nausea, No. (%) (Total, N=54): 18 (33) | All grade Peripheral edema, No. (%) (Total, N=54): 13 (24) | All grade URI, No. (%) (Total, N=54): 25 (46) | Any AE, No. (%) (Total, N=54): 53 (98) | Death, No. (%) (Total, N=54): 2 (4) | Drug-related AE, No. (%) (Total, N=54): 30 (56) | Drug-related SAE, No. (%) (Total, N=54): 0 | Grade ≥3 AE, No. (%) (Total, N=54): 33 (61) | Grade ≥3 ALT/AST increased, No. (%) (Total, N=54): 4 (7) | Grade ≥3 Anemia, No. (%) (Total, N=54): 3 (6) | Grade ≥3 Dyspnea, No. (%) (Total, N=54): 7 (13) | Grade ≥3 Hyperglycemia, No. (%) (Total, N=54): 4 (7) | Grade ≥3 Hypoxia, No. (%) (Total, N=54): 4 (7) | Grade ≥3 Lung infection or pneumonia, No. (%) (Total, N=54): 5 (9) | SAE, No. (%) (Total, N=54): 23 (43)
